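Briefly, cells in 96-well plates were exposed to five compound concentrations for 48 h, and endpoints were estimated by linear interpolation. At the GI50, growth is halved.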 Activity calls are given as the source filed them. Cut-off read from the data, not from the text of the source: active = GI50 up to about 1.1 µM and inactive = higher.
Key:
Assay in all cases: growth of human tumour cells (NCI), 48 h
NCI-H522 = system: NCI-H522
SNB-78 = system: SNB-78
OVCAR-3 = system: OVCAR-3
SNB-75 = system: SNB-75
SF-539 = system: SF-539
RPMI-8226 = system: RPMI-8226
OVCAR-5 = system: OVCAR-5
LXFL 529 = system: LXFL 529
U-251 = system: U-251
HCT-116 = system: HCT-116
NCI-H23 = system: NCI-H23
Malme-3M = system: Malme-3M
HOP-62 = system: HOP-62
HL-60 = system: HL-60
SR = system: SR
DLD-1 = system: DLD-1
SK-OV-3 = system: SK-OV-3
EKVX = system: EKVX
M19-MEL = system: M19-MEL
IGROV-1 = system: IGROV-1
UACC-257 = system: UACC-257
RXF 393 = system: RXF 393
HOP-18 = system: HOP-18
RXF 631 = system: RXF 631
DMS-273 = system: DMS-273
M14 = system: M14
SN12C = system: SN12C
HCT-15 = system: HCT-15
NCI-H460 = system: NCI-H460
OVCAR-4 = system: OVCAR-4
UO-31 = system: UO-31
K562 = system: K562
KM12 = system: KM12
CCRF-CEM = system: CCRF-CEM
A549 = system: A549
MOLT-4 = system: MOLT-4
COLO 205 = system: COLO 205
SNB-19 = system: SNB-19
KM-20L2 = system: KM-20L2
CAKI-1 = system: CAKI-1
LOX IMVI = system: LOX IMVI
A498 = system: A498
SW-620 = system: SW-620
UACC-62 = system: UACC-62
SK-MEL-28 = system: SK-MEL-28
SF-295 = system: SF-295
HCC 2998 = system: HCC 2998
786-0 = system: 786-0
ACHN = system: ACHN
HT-29 = system: HT-29
HOP-92 = system: HOP-92
SK-MEL-5 = system: SK-MEL-5
SF-268 = system: SF-268
TK-10 = system: TK-10
OVCAR-8 = system: OVCAR-8
SK-MEL-2 = system: SK-MEL-2
DMS-114 = system: DMS-114
NCI-H226 = system: NCI-H226

O=[N+]([O-])c1cc(I)cc(/C=N/NS(=O)(=O)c2ccc(F)cc2)c1O
GI50 (NCI-H522): 20.7 µM (inactive)
GI50 (SNB-78): 23.3 µM (inactive)
GI50 (OVCAR-3): 19 µM (inactive)
GI50 (SNB-75): 25 µM (inactive)
GI50 (SF-539): 27.1 µM (inactive)
GI50 (RPMI-8226): 22.1 µM (inactive)
GI50 (OVCAR-5): 39 µM (inactive)
GI50 (LXFL 529): 20.7 µM (inactive)
GI50 (U-251): 22.4 µM (inactive)
GI50 (HCT-116): 22.9 µM (inactive)
GI50 (NCI-H23): 20 µM (inactive)
GI50 (Malme-3M): 21.2 µM (inactive)
GI50 (HOP-62): 26.2 µM (inactive)
GI50 (HL-60): 28.4 µM (inactive)
GI50 (SR): 22.3 µM (inactive)
GI50 (DLD-1): 36.5 µM (inactive)
GI50 (SK-OV-3): 27.4 µM (inactive)
GI50 (EKVX): 30.7 µM (inactive)
GI50 (M19-MEL): 31.2 µM (inactive)
GI50 (IGROV-1): 33.7 µM (inactive)
GI50 (UACC-257): 25.2 µM (inactive)
GI50 (RXF 393): 27 µM (inactive)
GI50 (HOP-18): 19.7 µM (inactive)
GI50 (RXF 631): 23.7 µM (inactive)
GI50 (DMS-273): 21.5 µM (inactive)
GI50 (M14): 27.5 µM (inactive)
GI50 (SN12C): 22.9 µM (inactive)
GI50 (HCT-15): 27.3 µM
GI50 (NCI-H460): 21.9 µM (inactive)
GI50 (OVCAR-4): 38.5 µM (inactive)
GI50 (UO-31): 26.2 µM (inactive)
GI50 (K562): 21.6 µM (inactive)
GI50 (KM12): 25.5 µM (inactive)
GI50 (CCRF-CEM): 22 µM (inactive)
GI50 (A549): 35.5 µM (inactive)
GI50 (MOLT-4): 24.7 µM (inactive)
GI50 (COLO 205): 18.3 µM (inactive)
GI50 (SNB-19): 31 µM (inactive)
GI50 (KM-20L2): 29.8 µM (inactive)
GI50 (CAKI-1): 26.2 µM (inactive)
GI50 (LOX IMVI): 27 µM (inactive)
GI50 (A498): 36.1 µM (inactive)
GI50 (SW-620): 32.4 µM (inactive)
GI50 (UACC-62): 20.3 µM (inactive)
GI50 (SK-MEL-28): 29.4 µM (inactive)
GI50 (SF-295): 33.2 µM (inactive)
GI50 (HCC 2998): 33 µM (inactive)
GI50 (786-0): 28.4 µM (inactive)
GI50 (ACHN): 30.7 µM (inactive)
GI50 (HT-29): 18.7 µM (inactive)
GI50 (HOP-92): 18.3 µM (inactive)
GI50 (SK-MEL-5): 22.5 µM (inactive)
GI50 (SF-268): 28.9 µM (inactive)
GI50 (TK-10): 28.6 µM (inactive)
GI50 (OVCAR-8): 23.6 µM (inactive)
GI50 (SK-MEL-2): 18 µM (inactive)
GI50 (DMS-114): 24.2 µM (inactive)

O=C1C2C3SC(c4cc5ccccc5cc43)C2C(=O)N1c1ccccc1 (stereo not given)
GI50 (NCI-H522): 75.7 µM (inactive)
GI50 (SNB-78): 84.5 µM (inactive)
GI50 (OVCAR-3): > 100 µM (inactive)
GI50 (SNB-75): 19.8 µM (inactive)
GI50 (SF-539): 85.3 µM (inactive)
GI50 (RPMI-8226): > 100 µM (inactive)
GI50 (OVCAR-5): > 100 µM (inactive)
GI50 (LXFL 529): 94.6 µM (inactive)
GI50 (U-251): 68.2 µM (inactive)
GI50 (HCT-116): > 100 µM (inactive)
GI50 (NCI-H23): 98.9 µM (inactive)
GI50 (Malme-3M): 70.3 µM (inactive)
GI50 (HL-60): > 100 µM (inactive)
GI50 (SK-OV-3): > 100 µM (inactive)
GI50 (EKVX): > 100 µM (inactive)
GI50 (M19-MEL): > 100 µM (inactive)
GI50 (IGROV-1): > 100 µM (inactive)
GI50 (UACC-257): > 100 µM (inactive)
GI50 (RXF 393): 28.1 µM (inactive)
GI50 (HOP-18): > 100 µM (inactive)
GI50 (RXF 631): > 100 µM (inactive)
GI50 (DMS-273): > 100 µM (inactive)
GI50 (M14): > 100 µM (inactive)
GI50 (SN12C): > 100 µM (inactive)
GI50 (HCT-15): > 100 µM
GI50 (OVCAR-4): 39.4 µM (inactive)
GI50 (UO-31): > 100 µM (inactive)
GI50 (K562): > 100 µM (inactive)
GI50 (KM12): > 100 µM (inactive)
GI50 (CCRF-CEM): > 100 µM (inactive)
GI50 (A549): > 100 µM (inactive)
GI50 (MOLT-4): > 100 µM (inactive)
GI50 (COLO 205): > 100 µM (inactive)
GI50 (SNB-19): 30.7 µM (inactive)
GI50 (KM-20L2): > 100 µM (inactive)
GI50 (CAKI-1): 45 µM (inactive)
GI50 (LOX IMVI): > 100 µM (inactive)
GI50 (A498): 41.8 µM (inactive)
GI50 (SW-620): > 100 µM (inactive)
GI50 (UACC-62): 95.1 µM (inactive)
GI50 (SK-MEL-28): 88.5 µM (inactive)
GI50 (SF-295): > 100 µM (inactive)
GI50 (HCC 2998): > 100 µM (inactive)
GI50 (786-0): 50.8 µM (inactive)
GI50 (ACHN): 48.5 µM (inactive)
GI50 (HT-29): > 100 µM (inactive)
GI50 (HOP-92): 30.1 µM (inactive)
GI50 (SK-MEL-5): > 100 µM (inactive)
GI50 (SF-268): > 100 µM (inactive)
GI50 (TK-10): > 100 µM (inactive)
GI50 (OVCAR-8): 90.6 µM (inactive)
GI50 (SK-MEL-2): 77.1 µM (inactive)
GI50 (DMS-114): > 100 µM (inactive)
GI50 (NCI-H226): > 100 µM (inactive)

COc1cc([C@@H]2OC(=O)C3C2C(=O)O[C@H]3c2ccc(O)c(OC)c2)ccc1O (stereo not given in full)
GI50 (SNB-78): > 100 µM (inactive)
GI50 (OVCAR-3): > 100 µM (inactive)
GI50 (SNB-75): > 100 µM (inactive)
GI50 (SF-539): > 100 µM (inactive)
GI50 (RPMI-8226): > 100 µM (inactive)
GI50 (OVCAR-5): > 100 µM (inactive)
GI50 (LXFL 529): > 100 µM (inactive)
GI50 (U-251): > 100 µM (inactive)
GI50 (HCT-116): > 100 µM (inactive)
GI50 (NCI-H23): > 100 µM (inactive)
GI50 (Malme-3M): > 100 µM (inactive)
GI50 (HOP-62): > 100 µM (inactive)
GI50 (SR): > 100 µM (inactive)
GI50 (DLD-1): > 100 µM (inactive)
GI50 (SK-OV-3): > 100 µM (inactive)
GI50 (M19-MEL): > 100 µM (inactive)
GI50 (IGROV-1): > 100 µM (inactive)
GI50 (UACC-257): > 100 µM (inactive)
GI50 (RXF 393): > 100 µM (inactive)
GI50 (HOP-18): > 100 µM (inactive)
GI50 (RXF 631): > 100 µM (inactive)
GI50 (DMS-273): > 100 µM (inactive)
GI50 (M14): > 100 µM (inactive)
GI50 (SN12C): > 100 µM (inactive)
GI50 (HCT-15): > 100 µM
GI50 (NCI-H460): > 100 µM (inactive)
GI50 (OVCAR-4): > 100 µM (inactive)
GI50 (UO-31): > 100 µM (inactive)
GI50 (K562): > 100 µM (inactive)
GI50 (KM12): > 100 µM (inactive)
GI50 (CCRF-CEM): > 100 µM (inactive)
GI50 (A549): > 100 µM (inactive)
GI50 (MOLT-4): > 100 µM (inactive)
GI50 (COLO 205): > 100 µM (inactive)
GI50 (SNB-19): > 100 µM (inactive)
GI50 (KM-20L2): > 100 µM (inactive)
GI50 (CAKI-1): > 100 µM (inactive)
GI50 (LOX IMVI): > 100 µM (inactive)
GI50 (A498): > 100 µM (inactive)
GI50 (SW-620): > 100 µM (inactive)
GI50 (UACC-62): > 100 µM (inactive)
GI50 (SK-MEL-28): > 100 µM (inactive)
GI50 (SF-295): > 100 µM (inactive)
GI50 (HCC 2998): > 100 µM (inactive)
GI50 (786-0): > 100 µM (inactive)
GI50 (ACHN): > 100 µM (inactive)
GI50 (HT-29): > 100 µM (inactive)
GI50 (HOP-92): > 100 µM (inactive)
GI50 (SK-MEL-5): > 100 µM (inactive)
GI50 (SF-268): > 100 µM (inactive)
GI50 (TK-10): > 100 µM (inactive)
GI50 (OVCAR-8): > 100 µM (inactive)
GI50 (DMS-114): > 100 µM (inactive)
GI50 (NCI-H226): > 100 µM (inactive)
